Data as given in ChEMBL document CHEMBL4002618, “Anticomplement triterpenoids from the roots of Ilex asprella” (2017).
Activity calls are given as the source filed them. No cut-off for these calls is given here.

Key:
Erythrocyte [1] = assay: Anticomplement activity in sheep erythrocytes assessed as concentration required for 50% hemolytic inhibition by classic pathway preincubated for 10 mins with guinea pig serum followed by erythrocyte addition measured after 30 mins by spectrophotometer; assay type: functional
Erythrocyte [2] = assay: Anticomplement activity in New Zealand White rabbit erythrocytes assessed as concentration required for 50% hemolytic inhibition by alternative pathway preincubated for 10 mins with normal human serum followed by erythrocyte addition measured after 30 mins by spectrophotometer; assay type: functional
Erythrocyte [3] = assay: Anticomplement activity in sheep erythrocytes assessed as inhibition of hemolysis by classical pathway after 30 mins of compound treatment in normal human serum with C2-depleted sera; assay type: functional, cell-based; details: Ovis aries
Erythrocyte [4] = assay: Anticomplement activity in sheep erythrocytes assessed as inhibition of hemolysis by classical pathway by measuring hemolysis after 30 mins of compound treatment in normal human serum with C3-depleted sera relative to control; assay type: functional, Ovis aries; parameters: scale not given: the % may be the effect or the level left
Erythrocyte [5] = assay: Anticomplement activity in sheep erythrocytes assessed as inhibition of hemolysis by classical pathway after 30 mins of compound treatment in normal human serum with C1q-depleted sera; assay type: functional, cell-based; details: Ovis aries
Erythrocyte [6] = assay: Anticomplement activity in sheep erythrocytes assessed as inhibition of hemolysis by classical pathway by measuring hemolysis after 30 mins of compound treatment in normal human serum with C4-depleted sera relative to control; assay type: functional, Ovis aries; parameters: scale not given: the % may be the effect or the level left
Erythrocyte [7] = assay: Anticomplement activity in sheep erythrocytes assessed as inhibition of hemolysis by classical pathway by measuring hemolysis after 30 mins of compound treatment in normal human serum with C9-depleted sera relative to control; assay type: functional, Ovis aries; parameters: scale not given: the % may be the effect or the level left
Erythrocyte [8] = assay: Anticomplement activity in sheep erythrocytes assessed as inhibition of hemolysis by classical pathway after 30 mins of compound treatment in normal human serum with C5-depleted sera; assay type: functional, cell-based; details: Ovis aries

Compound | Activity (Erythrocyte [1]; Ovis aries) | Activity (Erythrocyte [2]; Oryctolagus cuniculus) | Activity (Erythrocyte [1]) [mg/mL] | Activity (Erythrocyte [2]) [mg/mL] | other results
COC(=O)[C@H]1O[C@@H](O[C@H]2CC[C@]3(C)[C@H]4CC=C5[C@H]6[C@](C(=O)O)(CC[C@H](C)[C@@]6(C)O)CC[C@@]5(C)[C@]4(C)CC[C@H]3C2(C)C)[C@H](O)[C@@H](O)[C@@H]1O | inactive | inactive | – | – | –
C[C@H]1CC[C@]2(C(=O)O[C@@H]3O[C@H](CO)[C@@H](O)[C@H](O)[C@H]3O)CC[C@]3(C)C(=CC[C@@H]4[C@@]5(C)CC[C@H](O[C@@H]6OC[C@H](O)[C@H](O)[C@H]6O)C(C)(C)[C@@H]5CC[C@]43C)[C@@H]2[C@]1(C)O | inactive | inactive | – | – | –
C=C1[C@@H](O)[C@H](O)C[C@]2(C)[C@H]3CC=C4[C@@H]5[C@@H](C)[C@H](C)CC[C@]5(C(=O)O)CC[C@@]4(C)[C@]3(C)CC[C@@H]12 [ILEKUDINOL B] | – | – | 0.123 | 0.586 | –
COC(=O)[C@]12CCC(C)(C)C[C@H]1C1=CC[C@@H]3[C@@]4(C)CC[C@H](O)C(C)(C)[C@@H]4CC[C@@]3(C)[C@]1(COC(=O)/C=C/c1ccc(O)cc1)CC2 | – | – | 0.094 | 0.444 | Activity (Erythrocyte [3]): inactive; Activity (Erythrocyte [4]): <18.3%; Activity (Erythrocyte [5]): inactive; Activity (Erythrocyte [6]): <18.3%; Activity (Erythrocyte [7]): <18.3%; Activity (Erythrocyte [8]): inactive
C[C@H]1[C@H](C)CC[C@@]23CC[C@]4(C)[C@@](OC2=O)([C@H]13)[C@H]1O[C@H]1[C@@H]1[C@@]2(C)CC(=O)[C@H](O)[C@@H](C)[C@@H]2[C@H](O)C[C@]14C | – | – | 0.592 | 0.734 | –
COC(=O)[C@]12CCC(C)(C)C[C@H]1C1=CC[C@@H]3[C@@]4(C)CC[C@H](O)C(C)(C)[C@@H]4CC[C@@]3(C)[C@]1(COC(=O)/C=C/c1ccc(O)c(O)c1)CC2 | – | – | 0.063 | 0.089 | Activity (Erythrocyte [3]): inactive; Activity (Erythrocyte [4]): <18.3%; Activity (Erythrocyte [5]): inactive; Activity (Erythrocyte [6]): <18.3%; Activity (Erythrocyte [7]): <18.3%; Activity (Erythrocyte [8]): inactive
CC1(C)CC[C@]2(C(=O)O)CC[C@]3(C)C(=CC[C@@H]4[C@@]5(C)CC[C@H](O[C@@H]6OC[C@H](O)[C@H](O)[C@H]6O)C(C)(C)[C@@H]5CC[C@]43C)[C@@H]2[C@@H]1O | inactive | inactive | – | – | –
C=C1[C@@H](O)[C@H](O)C[C@]2(C)[C@H]3C=C[C@]45OC(=O)[C@@]6(CC[C@@H](C)[C@H](C)[C@H]64)CC[C@@]5(C)[C@]3(C)CC[C@@H]12 [ILEKUDINOL A] | – | – | 0.248 | 0.658 | –
COC(=O)[C@H]1O[C@@H](O[C@H]2CC[C@]3(C)[C@H]4CC=C5[C@@H]6[C@H](O)C(C)(C)CC[C@]6(C(=O)O)CC[C@@]5(C)[C@]4(C)CC[C@H]3C2(C)C)[C@H](O)[C@@H](O)[C@@H]1O | inactive | inactive | – | – | –
CC1=C2[C@H](O)C[C@]3(C)[C@H]([C@@H]4O[C@@H]4[C@]45OC(=O)[C@@]6(CCC(C)(C)C[C@H]64)CC[C@]53C)[C@@]2(C)C=C(O)C1=O | – | – | 0.38 | 0.944 | –
CC(=O)O[C@H]1[C@H](O[C@H]2CC[C@]3(C)[C@H]4CC=C5[C@H]6[C@](C(=O)O[C@@H]7O[C@H](CO)[C@@H](O)[C@H](O)[C@H]7O)(CC[C@@H](C)[C@@]6(C)O)CC[C@@]5(C)[C@]4(C)CC[C@H]3C2(C)C)OC[C@H](O)[C@@H]1O | inactive | inactive | – | – | –
C=C1[C@@H](O)[C@H](O)C[C@]2(C)[C@H]3[C@@H]4O[C@@H]4[C@]45OC(=O)[C@@]6(CC[C@@H](C)[C@H](C)[C@H]64)CC[C@@]5(C)[C@]3(C)CC[C@@H]12 [ULMOIDOL] | – | – | 0.429 | 0.794 | –
COC(=O)[C@]12CC[C@@H](C)[C@@](C)(O)[C@H]1C1=CC[C@@H]3[C@@]4(C)CC[C@H](O)C(C)(C)[C@@H]4CC[C@@]3(C)[C@]1(COC(=O)/C=C/c1ccc(O)c(OC)c1)CC2 | – | – | 0.131 | 0.319 | –
COC(=O)[C@H]1O[C@@H](O[C@H]2CC[C@@]3(C)[C@@H](CC[C@]4(C)[C@@H]3CC=C3[C@H]5[C@](C(=O)O)(CC[C@@H](C)[C@@]5(C)O)CC[C@]34C)[C@]2(C)CO)[C@H](O)[C@@H](O)[C@@H]1O | inactive | inactive | – | – | –
C[C@@H]1CC[C@]2(C(=O)O[C@@H]3O[C@H](CO)[C@@H](O)[C@H](O)[C@H]3O)CC[C@]3(C)C(=CC[C@@H]4[C@@]5(C)CC[C@H](O)C(C)(C)[C@@H]5CC[C@]43C)[C@@H]2[C@]1(C)O | inactive | inactive | – | – | –
C[C@@H]1CC[C@]2(C(=O)O[C@@H]3O[C@H](CO)[C@@H](O)[C@H](O)[C@H]3O)CC[C@]3(C)C(=CC[C@@H]4[C@@]5(C)CC[C@H](O[C@@H]6OC[C@H](O)[C@H](O)[C@H]6O)C(C)(C)[C@@H]5CC[C@]43C)[C@@H]2[C@]1(C)O | inactive | inactive | – | – | –

Compound | Activity (Erythrocyte [1]; Ovis aries) | Activity (Erythrocyte [2]; Oryctolagus cuniculus) | Activity (Erythrocyte [1]) [mg/mL] | Activity (Erythrocyte [2]) [mg/mL] | other results
C[C@H]1CC[C@]2(C(=O)O[C@@H]3O[C@H](CO)[C@@H](O)[C@H](O)[C@H]3O)CC[C@]3(C)C(=CC[C@@H]4[C@@]5(C)CC[C@H](O[C@@H]6OC[C@@H](O)[C@H](O)[C@H]6O)C(C)(C)[C@@H]5CC[C@]43C)[C@@H]2[C@]1(C)O | inactive | inactive | – | – | –
COC(=O)[C@]12CC[C@@H](C)[C@H](C)[C@H]1C1=CC[C@@H]3[C@@]4(C)CC[C@H](O)C(C)(C)[C@@H]4CC[C@@]3(C)[C@]1(COC(=O)/C=C/c1ccc(O)c(O)c1)CC2 | – | – | 0.058 | 0.08 | Activity (Erythrocyte [3]): inactive; Activity (Erythrocyte [4]): <18.3%; Activity (Erythrocyte [5]): inactive; Activity (Erythrocyte [6]): <18.3%; Activity (Erythrocyte [7]): <18.3%; Activity (Erythrocyte [8]): inactive
C[C@@H]1CC[C@]2(C(=O)O)CC[C@]3(C)C(=CC[C@@H]4[C@@]5(C)CC[C@H](O)[C@@](C)(CO)[C@@H]5CC[C@]43C)[C@@H]2[C@]1(C)O [ROTUNDIC ACID] | – | – | 0.19 | 0.341 | –
C=C1[C@@H](O)[C@H](O)C[C@]2(C)[C@H]3[C@@H]4O[C@@H]4[C@]45OC(=O)[C@@]6(CCC(C)(C)C[C@H]64)CC[C@@]5(C)[C@]3(C)CC[C@@H]12 | – | – | 0.357 | 0.781 | –
COC(=O)[C@H]1O[C@@H](O[C@H]2CC[C@]3(C)[C@H]4CC=C5[C@H]6[C@](C(=O)O)(CC[C@@H](C)[C@@]6(C)O)CC[C@@]5(C)[C@]4(C)CC[C@H]3C2(C)C)[C@H](O)[C@@H](O)[C@@H]1O | inactive | inactive | – | – | –
C[C@H]1[C@H](C)CC[C@]2(C(=O)O)CC[C@]3(C)C(=CC[C@@H]4[C@@]5(C)CC[C@H](O)C(C)(C)[C@@H]5CC[C@]43C)[C@H]12 [URSOLIC ACID] | – | – | 0.278 | 0.493 | –
C[C@@H]1CC[C@]2(C(=O)O)CC[C@]3(C)C(=CC[C@@H]4[C@@]5(C)CC[C@H](O[C@@H]6OC[C@H](O)[C@H](O)[C@H]6O)C(C)(C)[C@@H]5CC[C@]43C)[C@@H]2[C@]1(C)O | inactive | inactive | – | – | –
C[C@@H]1CC[C@]2(C(=O)O)CC[C@]3(C)C(=CC[C@@H]4[C@@]5(C)CC[C@H](O)C(C)(C)[C@@H]5CC[C@]43C)[C@@H]2[C@]1(C)O [POMOLIC ACID] | – | – | 0.101 | 0.157 | –
C[C@H]1[C@H](C)CC[C@]2(C(=O)O)CC[C@]3(C)C(=CC[C@@H]4[C@@]5(C)C[C@H](O)[C@H](O)[C@@](C)(CO)[C@@H]5CC[C@]43C)[C@H]12 | – | – | 0.197 | 0.212 | –
C[C@@H]1CC[C@]2(C(=O)O[C@@H]3O[C@H](CO)[C@@H](O)[C@H](O)[C@H]3O)CC[C@]3(C)C(=CC[C@@H]4[C@@]5(C)CC[C@H](O[C@@H]6OC[C@@H](O)[C@H](O)[C@H]6O)C(C)(C)[C@@H]5CC[C@]43C)[C@@H]2[C@]1(C)O | inactive | inactive | – | – | –
CC(=O)O[C@H]1CC[C@]2(C)[C@H]3CC=C4[C@@H]5[C@@H](C)[C@H](C)CC[C@]5(CO)CC[C@@]4(C)[C@]3(C)CC[C@H]2C1(C)C | – | inactive | 0.46 | – | –
C[C@H]1[C@H](C)CC[C@]2(C(=O)O)CC[C@]3(C)C(=CC[C@@H]4[C@@]5(C)CC[C@H](O)[C@@](C)(CO)[C@@H]5CC[C@]43C)[C@H]12 | – | – | 0.161 | 0.678 | –
C=C1CC[C@@]23CC[C@]4(C)[C@@](OC2=O)([C@@H]3[C@H]1C)[C@H]1O[C@H]1[C@@H]1[C@@]2(C)C=C(O)C(=O)C(C)=C2[C@H](O)C[C@]14C | – | – | 0.236 | 0.656 | –
C[C@H]1CC[C@]2(C(=O)O)CC[C@]3(C)C(=CC[C@@H]4[C@@]5(C)CC[C@H](O)C(C)(C)[C@@H]5CC[C@]43C)[C@@H]2[C@]1(C)O | – | – | 0.237 | 0.579 | –
CC1=C2[C@H](O)C[C@]3(C)[C@H]([C@@H]4O[C@@H]4[C@]45OC(=O)[C@@]6(CC[C@@H](C)[C@H](C)[C@H]64)CC[C@]53C)[C@@]2(C)C=C(O)C1=O | – | – | 0.505 | 0.774 | –
